Measured values reported in PubChem BioAssay (NCI).
Where “and” joins values, the source holds several entries; their conditions need not be identical. Equal entries are not always repeated.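 Briefly, cells in 96-well plates were exposed to five compound concentrations for 48 h, and endpoints were estimated by linear interpolation. Here, GI50 denotes the concentration required for 50% inhibition of growth. TGI marks complete inhibition of growth.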

What was measured:
Assay in all cases: DTP human tumour cell line panel, 48 h
A549 NSCLC = tested on: A549 NSCLC
CAKI-1 renal = tested on: CAKI-1 renal
CCRF-CEM leukemia = tested on: CCRF-CEM leukemia
HCC-2998 colon = tested on: HCC-2998 colon
M19-MEL melanoma = tested on: M19-MEL melanoma
SF-295 CNS = tested on: SF-295 CNS
SK-OV-3 ovarian = tested on: SK-OV-3 ovarian
TK-10 renal = tested on: TK-10 renal
HOP-62 NSCLC = tested on: HOP-62 NSCLC
KM20L2 colon = tested on: KM20L2 colon

Structure (SMILES) | TGI (A549 NSCLC) | TGI (CAKI-1 renal) | TGI (CCRF-CEM leukemia) | TGI (HCC-2998 colon) | TGI (M19-MEL melanoma) | TGI (SF-295 CNS) | TGI (SK-OV-3 ovarian) | TGI (TK-10 renal) | TGI (HOP-62 NSCLC) | TGI (KM20L2 colon) | GI50 (A549 NSCLC) | GI50 (CAKI-1 renal) | GI50 (CCRF-CEM leukemia) | GI50 (HCC-2998 colon) | GI50 (HOP-62 NSCLC) | GI50 (SF-295 CNS) | GI50 (SK-OV-3 ovarian) | GI50 (TK-10 renal)
Cc1ccccc1C1SCc2nc3ccccc3n21 (configuration not stated) | > 100 µM | > 100 µM | > 100 µM | > 100 µM | > 100 µM | > 100 µM | > 100 µM | > 100 µM |  |  |  |  |  |  |  |  |  | 
Clc1cc2ns[s+]c2cc1Cl | > 100 µM | > 100 µM | > 100 µM | > 100 µM | > 100 µM | > 100 µM | > 100 µM | 98.9 µM | > 81.7 µM | > 100 µM |  |  |  |  |  |  |  | 
NC1=NN(c2ccccc2)C(=O)C1/C(=N\NC(=O)c1cc2ccccc2cc1O)C(=O)Nc1ccc(Cl)c(Cl)c1 (configuration not stated) | > 100 µM | > 100 µM | 57.7 µM | > 100 µM |  | > 100 µM |  | > 100 µM | > 100 µM | 65.8 µM |  |  |  |  |  |  |  | 
COc1ccc(NC(=O)CC2SC(=Nc3ccc(Cl)cc3C)NC2=O)c([N+](=O)[O-])c1 (configuration not stated) | > 100 µM | > 100 µM | > 100 µM | > 100 µM | > 100 µM | > 100 µM |  | > 100 µM |  | > 100 µM |  |  |  |  |  |  |  | 
CC(C)(C)c1cc([Si](C)(C)C)c(C#N)c([Si](C)(C)C)c1 | > 100 µM | > 100 µM | > 100 µM | > 100 µM | > 100 µM | > 100 µM | > 100 µM | > 100 µM | > 100 µM | > 100 µM |  |  |  |  |  |  |  | 
COc1ccc(C2[C@@H](Cl)C(=O)N2c2ccc(OC)cc2)cc1 (some centres not stated) | > 100 µM | > 100 µM | > 100 µM | > 100 µM | > 100 µM | > 100 µM | 53 µM | > 100 µM |  |  |  |  |  |  |  |  |  | 
CC1O[C@@H]2CCCCC(=O)[C@]2(C)[C@H]1C (some centres not stated) | > 100 µM | > 100 µM | > 100 µM | > 100 µM | > 100 µM | > 100 µM | > 100 µM | > 100 µM | > 100 µM | > 100 µM |  |  |  |  |  |  |  | 
COc1ccc(-c2oc(C=Nc3ccccc3)c([N+](=O)[O-])c2-c2ccc(OC)c(OC)c2)cc1OC | > 100 µM | > 100 µM |  | > 100 µM | > 100 µM | > 100 µM | > 100 µM | > 100 µM | > 100 µM | > 100 µM |  |  |  |  |  |  |  | 
O=c1[nH]c(C2CCCCC2)nc2ccc(Cl)cc12 | > 100 µM |  |  | > 100 µM | > 100 µM | > 100 µM | > 100 µM | > 100 µM |  | > 100 µM |  |  |  |  |  |  |  | 
O=C1/C(=C/c2ccc(C(=O)O)cc2)CNC/C1=C\c1ccc(C(=O)O)cc1 | > 100 µM |  | > 100 µM | > 100 µM | > 100 µM | > 100 µM | > 100 µM | > 100 µM | > 100 µM | > 100 µM |  |  |  |  |  |  |  | 
CN1C(=O)CC(CC(=O)C2CCCCC2=O)CC1=O (configuration not stated) | > 100 µM | > 100 µM | > 100 µM | > 100 µM | > 100 µM | > 100 µM | > 100 µM | > 100 µM | > 100 µM | > 100 µM |  |  |  |  |  |  |  | 
C=C1C(=O)O[C@H]2[C@H]1CC/C(COC(=O)NCCc1ccc(Br)cc1)=C\CC[C@@]1(C)O[C@@H]21 | 6.17 µM | 2.77 µM | 0.847 µM | 3.37 µM |  | 15.5 µM | 22.8 µM | 3.12 µM | 4.4 µM |  | 2.59 µM | 1.42 µM | 0.279 µM | 1.71 µM | 1.99 µM | 3.81 µM | 10.8 µM | 1.73 µM
CC(=O)OCc1cc[c]([Hg][Cl])o1 | 43.2 µM | 23.5 µM | 8.85 µM | 29.2 µM |  | 28.8 µM | 53.6 µM | 5.89 µM | 28.6 µM |  | 21.8 µM | 10.4 µM | 2.08 µM | 15.4 µM | 13.8 µM | 14.3 µM | 22.5 µM | 2.72 µM
CC1NCCC(CC(=O)O)C1CC(=O)O (configuration not stated) | > 100 µM | > 100 µM | > 100 µM | > 100 µM |  | > 100 µM | > 100 µM | > 100 µM | > 100 µM |  |  |  |  |  |  |  |  | 
O=Cc1cc2sc(C=O)cc2s1 | > 100 µM | > 100 µM | > 100 µM | > 100 µM | > 100 µM | > 100 µM | > 100 µM | > 100 µM | > 100 µM | > 100 µM |  |  |  |  |  |  |  | 
CCN1C(=O)N(CC)C2C1NN=c1s/c(=C\c3ccc(Br)cc3)c(=O)n12 (configuration not stated) | > 100 µM | > 100 µM | > 33.1 µM | > 100 µM |  | > 100 µM | > 100 µM | > 100 µM | > 100 µM |  | 0.313 µM | 0.065 µM | 0.246 µM | 0.349 µM | 0.305 µM | 0.0738 µM | 1.84 µM | 0.741 µM
O=C1C2=C(c3ccccc31)C(c1ccc([N+](=O)[O-])cc1)NC(=S)N2 (configuration not stated) | > 100 µM | > 100 µM | > 100 µM |  | > 100 µM | > 100 µM | > 100 µM | > 100 µM | > 100 µM | > 100 µM |  |  |  |  |  |  |  | 
CC1(/C=C/c2ccc(-c3ccccc3)cc2)CCn2cnc3ncnc(c32)N1O (configuration not stated) | 23.5 µM | 12.2 µM | 41.5 µM | 34.6 µM |  | 17.1 µM | 20.4 µM | > 100 µM | 16.4 µM |  | 0.466 µM | 0.327 µM | 0.153 µM | 0.409 µM | 0.366 µM | 0.419 µM | 0.434 µM | 0.492 µM
O=C(Nc1ccc([N+](=O)[O-])cc1Cl)c1cc(Cl)ccc1O | 23.4 µM and > 100 µM | 4.21 µM |  | 2.58 µM and 3.43 µM |  | 0.308 µM and 0.609 µM | 0.66 µM | 1.67 µM and 0.984 µM | 0.469 µM |  | 0.163 µM and 0.327 µM | 0.108 µM and 0.227 µM | 0.133 µM and 0.305 µM | 0.215 µM and 0.452 µM | 0.149 µM and 0.262 µM | 0.112 µM and 0.207 µM | 0.15 µM and 0.234 µM | 0.165 µM and 0.307 µM
Cc1cc(C(=O)NOCCO)c(Nc2ccc(I)cc2F)n(C)c1=O | > 100 µM | > 100 µM | > 100 µM | > 6.94 µM |  | > 100 µM | > 100 µM | > 100 µM | > 100 µM |  |  | 0.185 µM | > 100 µM | 0.00297 µM and < 0.01 µM |  | > 100 µM | > 10 µM and 51.6 µM | 
O=C1NC(=O)/C(=C/c2ccc3nccc(-c4ccncc4)c3c2)S1 | 5.24 µM | 2.04 µM | > 10 µM | 3.89 µM |  | 2.13 µM | 0.918 µM | 1.24 µM | 4.26 µM |  | 0.61 µM | 0.289 µM | 0.495 µM | 0.35 µM | 0.359 µM | 0.356 µM | 0.201 µM | 0.197 µM
